US20180185347A1, “TETRAHYDROCYCLOPENTA[B]INDOLE COMPOUNDS AND PHOSPHODIESTERASE INHIBITORS FOR THE TREATMENT OF THE SIGNS AND SYMPTOMS OF BHP” (Transition Therapeutics (Ireland 2) Limited, priority 2016, published 2018)
“Also recorded” adds a separate entry of the source.

Tests used:
[1] = Clinical body composition and muscle power; type: in vivo, human
Excerpt: The Phase 2 Study for ED also included exploratory measures for lower extremity muscle strength and power, LBM and fat mass. […] The results are illustrated in FIGS. 12, 13, and 14.

Dog bioavailability = type: in vivo
[2] = Study GPBA single oral dose pharmacokinetics; details: human, in vivo, healthy subjects; for Cmax: geometric mean; for Tmax: median
[3] = molecular target: T1, serum hormone binding globulin (Homo sapiens, UniProt P04278); assay: Affinity to serum hormone binding globulin; details: at 10 μM
T1 sequence (P04278 30-402): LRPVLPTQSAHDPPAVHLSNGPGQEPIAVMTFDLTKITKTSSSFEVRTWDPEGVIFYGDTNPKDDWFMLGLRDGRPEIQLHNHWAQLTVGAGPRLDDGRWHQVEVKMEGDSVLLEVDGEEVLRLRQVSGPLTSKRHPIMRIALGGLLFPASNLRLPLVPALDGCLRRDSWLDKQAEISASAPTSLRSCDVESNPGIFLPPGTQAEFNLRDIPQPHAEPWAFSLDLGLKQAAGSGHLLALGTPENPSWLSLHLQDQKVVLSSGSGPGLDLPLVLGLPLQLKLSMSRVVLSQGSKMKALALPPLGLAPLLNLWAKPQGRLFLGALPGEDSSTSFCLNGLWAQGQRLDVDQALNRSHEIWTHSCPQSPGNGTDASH

[4] = QT / ECG assessment in clinical studies; type: in vivo, human; details: Study GPEC
orchidectomized rats = assay: Testosterone induced prostate / seminal vesicle growth in delayed ORX rat model; type: in vivo
Excerpt: Orchidectomized (ORX) and sham-operated Wistar male rats were used (orchidectomized at 8 weeks of age and allowed to waste for 4 weeks). […] Rats were randomized and placed into treatment groups (n=6) based on body weight. Route of administration for all groups except testosterone enanthate (TE was given sub-cutaneously) was oral. At the end of 2 weeks of daily rats were euthanized, weighed & tissue harvested. Levator ani, prostates, and seminal vesicles were collected from each animal. Results are plotted as means±SE.

[5] = molecular target: T2, 17-beta-Hydroxysteroid Dehydrogenase Type 2 (Homo sapiens, UniProt P37059); assay: Metabolism by 17-beta-HSD type 2; type: in vitro ADME
T2 sequence (P37059 1-387): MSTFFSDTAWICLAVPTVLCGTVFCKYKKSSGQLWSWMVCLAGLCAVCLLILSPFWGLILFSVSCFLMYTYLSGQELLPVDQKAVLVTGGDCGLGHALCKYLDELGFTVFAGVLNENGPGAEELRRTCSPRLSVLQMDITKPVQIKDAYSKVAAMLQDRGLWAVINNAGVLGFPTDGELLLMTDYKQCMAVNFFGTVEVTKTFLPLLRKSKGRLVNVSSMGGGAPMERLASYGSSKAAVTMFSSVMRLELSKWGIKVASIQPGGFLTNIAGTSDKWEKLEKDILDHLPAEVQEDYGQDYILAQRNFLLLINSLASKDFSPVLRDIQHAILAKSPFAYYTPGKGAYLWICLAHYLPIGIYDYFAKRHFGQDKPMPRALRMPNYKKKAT

PSA levels = assay: PSA in healthy subjects (Study GPBC, Phase 1); type: in vivo, human
Excerpt: The results of this study are illustrated in FIG. 6.

LnCAP cells = assay: LnCAP gene expression; type: cell-based; details: Homo sapiens, read-out: LnCAP Gene Expression EC50 (nM) AR
[6] = molecular target: T3, human androgen receptor (hAR) (Homo sapiens, UniProt P10275); assay: AR binding affinity (Ki)
T3 sequence (P10275 1-920): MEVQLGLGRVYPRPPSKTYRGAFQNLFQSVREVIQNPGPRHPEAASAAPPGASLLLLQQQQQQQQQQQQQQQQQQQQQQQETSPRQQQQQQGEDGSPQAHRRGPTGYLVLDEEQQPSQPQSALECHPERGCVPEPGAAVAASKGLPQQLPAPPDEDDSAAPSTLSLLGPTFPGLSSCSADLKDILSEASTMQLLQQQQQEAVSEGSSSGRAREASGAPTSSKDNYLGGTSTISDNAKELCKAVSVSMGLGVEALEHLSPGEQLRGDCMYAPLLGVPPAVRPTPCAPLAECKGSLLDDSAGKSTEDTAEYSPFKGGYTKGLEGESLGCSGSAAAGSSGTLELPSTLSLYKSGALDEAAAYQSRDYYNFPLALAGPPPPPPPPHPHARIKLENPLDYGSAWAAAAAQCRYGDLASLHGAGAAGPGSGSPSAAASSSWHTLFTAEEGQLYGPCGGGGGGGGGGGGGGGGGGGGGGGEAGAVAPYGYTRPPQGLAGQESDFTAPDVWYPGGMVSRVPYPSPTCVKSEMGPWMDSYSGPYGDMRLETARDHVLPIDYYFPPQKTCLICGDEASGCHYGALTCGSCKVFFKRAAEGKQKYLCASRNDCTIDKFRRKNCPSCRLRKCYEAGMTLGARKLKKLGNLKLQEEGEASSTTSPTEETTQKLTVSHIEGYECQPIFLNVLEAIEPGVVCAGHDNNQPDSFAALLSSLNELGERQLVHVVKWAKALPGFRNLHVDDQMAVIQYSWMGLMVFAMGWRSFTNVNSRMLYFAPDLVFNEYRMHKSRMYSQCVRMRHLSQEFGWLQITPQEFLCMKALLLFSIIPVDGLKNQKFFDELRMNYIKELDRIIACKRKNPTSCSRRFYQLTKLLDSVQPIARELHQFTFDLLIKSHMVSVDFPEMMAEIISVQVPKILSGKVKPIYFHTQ

[7] = Study GPEC, 12 weeks, 5 mg + 5 mg tadalafil compared with 10 mg tadalafil

For `CC(C)OC(=O)N[C@H]1Cc2c(n(Cc3ccccn3)c3ccc(C#N)cc23)C1` [compound of Formula II, (S)-(7-cyano-4-pyridin-2-ylmethyl-1,2,3,4-tetrahydro-cyclopenta[b]indol-2-yl)-carbamic acid isopropyl ester], the “LBM and calf area (by CT)” value ([1]; Study GPBC, healthy subjects, 28 days) was “clinically and statistically significant increases”, the “fat body mass and LBM” value [1, 7] was “reduction of fat body mass and an increase (improvement) of LBM” and the “lower extremity muscle power (stair climb)” value [1, 7] was “increased (improved)”. For the same molecule, the lean body mass ([1]; clinical studies in patients with androgen deficiency) was “clinically and statistically significant increases”, the bioavailability (Dog bioavailability; in vivo, read-out: Dog F %) was 58% and the “Dog F %” value (Dog bioavailability; listed as TT701) was 58%. It also gave a Cmax ([2]; single oral dose 5 mg) of 25.9 ng/mL, a Tmax ([2]; single oral dose 5 mg) of 5 h and a Cmax ([2]; single oral dose 25 mg) of 123 ng/mL. The Tmax ([2]; single oral dose 25 mg) was 4 h, the Cmax ([2]; single oral dose 250 mg) was 589 ng/mL and the Tmax ([2]; single oral dose 250 mg) was 5 h. For the same molecule, the Cmax ([2]; single oral dose 500 mg) was 817 ng/mL, the Tmax ([2]; single oral dose 500 mg) was 4 h and the Cmax ([2]; single oral dose 1000 mg) was 910 ng/mL. For the same molecule, the Tmax ([2]; single oral dose 1000 mg) was 4.5 h, the “affinity to serum hormone binding globulin” value [3] was “none detected” and the ECG data [4] was “did not show evidence of clinically meaningful changes”. For the same molecule, the “prostate weights, Abs(Dif)-LSD vs ORX + TE control” value (orchidectomized rats; 1 mg/kg/d + 3 mg/kg/d) was −0.11, the “seminal vesicle wet weights, Abs(Dif)-LSD vs ORX + TE control” value (orchidectomized rats; 1 mg/kg/d + 3 mg/kg/d) was −0.34 and the “prostate weights, Abs(Dif)-LSD vs ORX + TE control” value (orchidectomized rats; 1 mg/kg/d + 10 mg/kg/d) was 0.036. For the same molecule, the “seminal vesicle wet weights, Abs(Dif)-LSD vs ORX + TE control” value (orchidectomized rats; 1 mg/kg/d + 10 mg/kg/d) was 0.078, the “prostate weights, Abs(Dif)-LSD vs ORX + TE control” value (orchidectomized rats; 1 mg/kg/d + 30 mg/kg/d) was 0.025 and the “prostate and seminal vesical weights normalized to body weight compared to TE alone” value (orchidectomized rats; ORX rat, TE 1 mg/kg/d + 3, 10 and 30 mg/kg/d, 2 weeks) was “decreasing prostate weight and seminal vesical weights; also recorded: reduced testosterone induced effects on prostate size”. For the same molecule, the “metabolism by 17-beta-Hydroxysteroid Dehydrogenase Type 2 class of enzymes” value [5] was “not metabolized”, the “PSA test, effect on the prostate” value (PSA levels; Study GPBC, healthy subjects, 1 mg to 75 mg daily for 28 days) was “neutral to negative effect (decreasing PSA)” and the PSA (PSA levels; clinical studies, any dose level (up to 75 mg doses)) was “No increases in PSA were observed”. For the same molecule, the EC50 (LnCAP cells) was 1.64 nM and the “binding affinity for hAR compared to other nuclear hormone receptors” value [6] was greater than 500 fold.
